Our source for the EC50 values is patent US8937069B2, “Substituted pyrrolo[2,3-B]pyrazine compounds and their use” (Novartis AG, priority 2012, dated 2015).

For orientation: EC50 means the concentration needed to bring the measured effect to its halfway point. Low readings indicate higher potency in that assay, high ones lower potency in that assay.

The target of this assay is T1, IP receptor (Homo sapiens, UniProt P43119).
T1 construct: expressed in transfected cells; host or cells: CHO cells stably expressing the IP receptor (CHO-IP)
T1 sequence (P43119 whole entry): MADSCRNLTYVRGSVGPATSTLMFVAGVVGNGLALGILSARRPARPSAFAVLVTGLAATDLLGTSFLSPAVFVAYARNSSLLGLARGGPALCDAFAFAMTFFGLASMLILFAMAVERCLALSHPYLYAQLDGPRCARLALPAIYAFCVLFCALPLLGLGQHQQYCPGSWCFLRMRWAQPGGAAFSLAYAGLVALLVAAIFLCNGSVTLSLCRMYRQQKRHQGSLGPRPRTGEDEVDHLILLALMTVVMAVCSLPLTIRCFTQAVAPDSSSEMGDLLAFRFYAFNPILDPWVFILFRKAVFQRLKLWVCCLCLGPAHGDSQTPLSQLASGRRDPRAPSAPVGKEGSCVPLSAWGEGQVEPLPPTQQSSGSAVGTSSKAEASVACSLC
In words: cAMP accumulation in CHO cells stably expressing the IP receptor (CHO-IP), PerkinElmer AlphaScreen assay. Format: cell-based. The following applies: agonist activity, 1 hour at room temperature, 4-parameter logistic fit. The protocol:
Activity of compounds at the IP receptor (IP receptor) is assessed by measuring cAMP accumulation in CHO cells stably expressing the IP receptor (CHO-IP) using the PerkinElmer AlphaScreen assay. This technology measures the endogenous production of cAMP, in a non-radioactive luminescence proximity homogenous assay. A biological reaction occurs between streptavidin coated donor beads, biotinylated cAMP and anti-cAMP acceptor beads, bringing the donor and acceptor beads close enough together so that upon excitation a fluorescence signal is produced. On production of endogenous cAMP, competition between the biotinylated cAMP and cellular-derived cAMP causes a reduction in the fluorescent signal. The reduction in signal is proportional to the amount of cAMP being produced, thus it is possible to quantify the amount of cAMP being produced on stimulation with agonist.
Test and reference compounds are prepared at 100×[final] in 100% DMSO, and diluted 1:3 using a Biomek Fx (Beckman Coulter). This is followed by an intermediate dilution to give 5×[final] in assay buffer (HBSS containing 5 mM HEPES, 0.1% (w/v) BSA). 5 μL of 5×[final] test compounds, reference compounds and buffer/DMSO control are then transferred to a 384-well white OptiPlate, containing 20 μL CHO-IP cell suspension (15,000 cells/well, prepared from frozen), and plate is incubated at room temperature for 1 hour. A cAMP standard curve is constructed for each experiment (concentration range of 10000 nM to 0.001 nM, in assay buffer) and 25 μL of each concentration added to the last two columns of the assay plate. The incubation is terminated by the addition of lysis buffer (dH2O; 0.3% (v v^−1) Tween-20) containing 20 units mL^−1 streptavidin coated donor beads and biotinylated cAMP (pre-incubated for 30 minutes) and 20 units mL^−1 anti-cAMP acceptor beads, which are added to the lysis buffer just before addition to the assay plate. The assay plate is then incubated at room temperature in the dark, for 60 minutes with gentle shaking, and read on the Envision plate reader (Perkin Elmer).
The raw data of the reference compounds, test compounds and controls are converted into cAMP concentrations, using the cAMP standard curve, in GraphPadPrism (GraphPad Software Inc). EC50 as well as maximal values of the agonist curves are determined using a 4-parameter logistic equation. The % maximum response values of all test compounds are determined using the top of the treprostinil concentration-response curve.
In general terms: Changes in cAMP serve as a functional read-out for many G protein-coupled receptors.
The molecule `Cc1ccc(-c2nc3cc(C4CC4)n(CCCCCCC(=O)O)c3nc2-c2ccc(C)cc2)cc1` [Example 1, 7-(6-Cyclopropyl-2,3-di-p-tolyl-5H-pyrrolo[2,3-b]pyrazin-5-yl)heptanoic acid] gave a 50% effective concentration (EC50) of 1.7 nM.
The value for `CCOC(=O)CCCCCCn1c(C2CC2)cc2nc(-c3ccc(C)cc3)c(-c3ccc(C)cc3)nc21` [Example 1.1, Ethyl 7-(6-cyclopropyl-2,3-di-p-tolyl-5H-pyrrolo[2,3-b]pyrazin-5-yl)heptanoate] was 57.5 nM; that for `Cc1ccc(-c2nc3cc(C(C)C)n(CCCCCCC(=O)O)c3nc2-c2ccc(C)cc2)cc1` [Example 1.2, 7-(6-Isopropyl-2,3-di-p-tolyl-pyrrolo[2,3-b]pyrazin-5-yl)-heptanoic acid] was 1.8 nM; that for `CCOC(=O)CCCCCCn1c(C(C)C)cc2nc(-c3ccc(C)cc3)c(-c3ccc(C)cc3)nc21` [Example 1.3, ethyl 7-(6-isopropyl-2,3-di-p-tolyl-5H-pyrrolo[2,3-b]pyrazin-5-yl)heptanoate] was 283 nM.
On to `CCOC(=O)CCCCCCn1ccc2nc(-c3ccc(C)cc3)c(-c3ccc(C)cc3)nc21` [Example 1.4, 7-(2,3-Di-p-tolyl-pyrrolo[2,3-b]pyrazin-5-yl)-heptanoic acid ethyl ester], for which the concentration giving a half-maximal response (EC50) turned out to be 18.3 nM. This EC50 is about 15-fold lower than that of the molecule before.
`Cc1ccc(-c2nc3ccn(CCCCCCC(=O)O)c3nc2-c2ccc(C)cc2)cc1` [Example 1.5, 7-(2,3-Di-p-tolyl-pyrrolo[2,3-b]pyrazin-5-yl)-heptanoic acid]: the response was half-maximal at 6.9 nM (EC50).
The same measure for `Cc1ccc(-c2nc3c(C=O)cn(CCCCCCC(=O)O)c3nc2-c2ccc(C)cc2)cc1` [Example 2.1, 7-(7-Formyl-2,3di-p-tolyl-5H-pyrrolo[2,3-b]pyrazin-5-yl)heptanoic acid]: 7.1 nM; for `Cc1ccc(-c2nc3c(CO)cn(CCCCCCC(=O)O)c3nc2-c2ccc(C)cc2)cc1` [Example 2.2, 7-(7-(Hydroxymethyl)-2,3-di-p-tolyl-5H-pyrrolo[2,3-b]pyrazin-5-yl)heptanoic acid]: 17.4 nM.
Molecule `CCOC(=O)CCCCCCn1cc(CO)c2nc(-c3ccc(C)cc3)c(-c3ccc(C)cc3)nc21` [Example 3, Ethyl 7-(7-(hydroxymethyl)-2,3-di-p-tolyl-5H-pyrrolo[2,3-b]pyrazin-5-yl)heptanoate] showed an EC50 of 325 nM.
The value for `CCOC(=O)CCCCCCn1cc(CNC(C)C)c2nc(-c3ccc(C)cc3)c(-c3ccc(C)cc3)nc21` [Example 4.1, Ethyl 7-(7-((isopropylamino)methyl)-2,3-di-p-tolyl-5H-pyrrolo[2,3-b]pyrazin-5-yl)heptanoate] was 415 nM; that for `Cc1ccc(-c2nc3c(CNC(C)C)cn(CCCCCCC(=O)O)c3nc2-c2ccc(C)cc2)cc1` [Example 4.2, 7-(7-((Isopropylamino)methyl)-2,3-di-p-tolyl-5H-pyrrolo[2,3-b]pyrazin-5-yl)heptanoic acid] was 79.7 nM.
As to `COc1cc2nc(-c3ccc(C)cc3)c(-c3ccc(C)cc3)nc2n1CCCCCCC(=O)O` [Example 5, 7-(6-Methoxy-2,3-di-p-tolyl-pyrrolo[2,3-b]pyrazin-5-yl)-heptanoic acid], the EC50 was 0.7 nM.
`CCOC(=O)CCCCCCN1CCc2nc(-c3ccc(C)cc3)c(-c3ccc(C)cc3)nc21` [Example 6, Ethyl 7-(2,3-di-p-tolyl-6,7-dihydro-5H-pyrrolo[2,3-b]pyrazin-5-yl)heptanoate] gave an EC50 of 1.8 nM.
`Cc1ccc(-c2nc3cc(CCCCC(=O)O)[nH]c3nc2-c2ccc(C)cc2)cc1` [Example 7, 5-(2,3-Di-p-tolyl-5H-pyrrolo[2,3-b]pyrazin-6-yl)-pentanoic acid] had a concentration giving a half-maximal response (EC50) of 320 nM.
The value for `Cc1ccc(-c2nc3cc(CCCCC(=O)NCC(=O)O)[nH]c3nc2-c2ccc(C)cc2)cc1` [Example 8, 2-(5-(2,3-Di-p-tolyl-5H-pyrrolo[2,3-b]pyrazin-6-yl)pentanamido)acetic acid] was 1250 nM.
For the molecule `Cc1ccc(-c2nc3cc(C)n(CCCCCCC(=O)O)c3nc2-c2ccc(C)cc2)cc1` [Example 9, 7-(6-Methyl-2,3-di-p-tolyl-5H-pyrrolo[2,3-b]pyrazin-5-yl)heptanoic acid], the 50% effective concentration (EC50) turned out to be 0.3 nM.
The same measure for `O=C(O)CCCCCCn1c(C2CC2)cc2nc(-c3ccccc3)c(-c3ccccc3)nc21` [Example 10, 7-(6-Cyclopropyl-2,3-diphenyl-pyrrolo[2,3-b]pyrazin-5-yl)-heptanoic acid]: 0.5 nM; for `COc1ccc(-c2nc3cc(C4CC4)n(CCCCCCC(=O)O)c3nc2-c2ccc(C)cc2)cc1` [Example 10.1, 7-(6-cyclopropyl-2-(4-methoxy-phenyl)-3-(p-tolyl)-5H-pyrrolo[2,3-b]pyrazin-5-yl)heptanoic acid]: 2.4 nM; for `O=C(O)CCCCCCn1c(C2CC2)cc2nc(-c3ccc(Cl)cc3)c(-c3ccc(Cl)cc3)nc21` [Example 10.2, 7-(2,3-bis(4-chlorophenyl)-6-cyclopropyl-5H-pyrrolo[2,3-b]pyrazin-5-yl)heptanoic acid]: 5.6 nM.
For the molecule `CCc1ccc(-c2nc3cc(C4CC4)n(CCCCCCC(=O)O)c3nc2-c2ccc(C)cc2)cc1` [Example 10.3, 7-(6-cyclopropyl-2-(4-ethylphenyl)-3-(p-tolyl)-5H-pyrrolo[2,3-b]pyrazin-5-yl)heptanoic acid], the EC50 is 6.8 nM.
The same measure for `Cc1cccc(-c2nc3cc(C4CC4)n(CCCCCCC(=O)O)c3nc2-c2cccc(C)c2)c1` [Example 10.4, 7-(6-cyclopropyl-2,3-di-m-tolyl-5H-pyrrolo[2,3-b]pyrazin-5-yl)heptanoic acid]: 60.6 nM; for `CCc1ccc(-c2nc3c(cc(C4CC4)n3CCCCCCC(=O)O)nc2-c2ccc(C)cc2)cc1` [Example 10.5, 7-(6-cyclopropyl-3-(4-ethylphenyl)-2-(p-tolyl)-5H-pyrrolo[2,3-b]pyrazin-5-yl)heptanoic acid]: 4.4 nM.
The value for `COc1ccc(-c2nc3c(cc(C4CC4)n3CCCCCCC(=O)O)nc2-c2ccc(C)cc2)cc1` [Example 10.6, 7-(6-cyclopropyl-3-(4-methoxyphenyl)-2-(p-tolyl)-5H-pyrrolo[2,3-b]pyrazin-5-yl)heptanoic acid] was 6.1 nM; that for `Cc1ccc(-c2nc3cc(C4CC4)n(CCCCCCC(=O)O)c3nc2-c2cccc(C)c2)cc1` [Example 10.7, 7-(6-cyclopropyl-3-(m-tolyl)-2-(p-tolyl)-5H-pyrrolo[2,3-b]pyrazin-5-yl)heptanoic acid] was 37.1 nM.
In the case of `Cc1ccc(-c2nc3c(cc(C4CC4)n3CCCCCCC(=O)O)nc2-c2cccc(C)c2)cc1` [Example 10.8, 7-(6-cyclopropyl-2-(m-tolyl)-3-(p-tolyl)-5H-pyrrolo[2,3-b]pyrazin-5-yl)heptanoic acid], the EC50 turned out to be 2.5 nM.
The molecule `Cc1ccc(-c2nc3cc(CCO)n(CCCCCCC(=O)O)c3nc2-c2ccc(C)cc2)cc1` [Example 11, 7-(6-(2-Hydroxyethyl)-2,3-di-p-tolyl-5H-pyrrolo[2,3-b]pyrazin-5-yl)heptanoic acid] registered a half-maximal effective concentration (EC50) of 1.6 nM.
The value for `Cc1ccc(-c2nc3cc(C4CC4)n(CCCCC(=O)O)c3nc2-c2ccc(C)cc2)cc1` [Example 12, 5-(6-Cyclopropyl-2,3-di-p-tolyl-5H-pyrrolo[2,3-b]pyrazin-5-yl)pentanoic acid] was 660 nM; that for `Cc1ccc(-c2nc3cc(C4CC4)n(CCCCCC(=O)O)c3nc2-c2ccc(C)cc2)cc1` [Example 13, 6-(6-Cyclopropyl-2,3-di-p-tolyl-5H-pyrrolo[2,3-b]pyrazin-5-yl)hexanoic acid] was 2.4 nM.
As for `COCc1cn(CCCCCCC(=O)O)c2nc(-c3ccc(C)cc3)c(-c3ccc(C)cc3)nc12` [Example 14, 7-(7-(Methoxymethyl)-2,3-di-p-tolyl-5H-pyrrolo[2,3-b]pyrazin-5-yl)heptanoic acid], the EC50 was found to be 4.2 nM.
`Cc1ccc(-c2nc3c(nc2-c2ccc(C)cc2)N(CCCCCCC(=O)O)C(=O)C3)cc1` [Example 15, 7-(6-oxo-2,3-dip-tolyl-6,7-dihydro-5H-pyrrolo[2,3-b]pyrazin-5-yl)heptanoic acid] had an EC50 of 3.6 nM.
The same measure for `Cc1ccc(-c2nc3cc(C(F)(F)F)n(CCCCCCC(=O)O)c3nc2-c2ccc(C)cc2)cc1` [Example 16, 7-(2,3-Dip-tolyl-6-(trifluoromethyl)-5H-pyrrolo[2,3-b]pyrazin-5-yl)heptanoic acid]: 3 nM.
For the molecule `CCc1c(CC)n(CCCCCCC(=O)O)c2nc(-c3ccc(C)cc3)c(-c3ccc(C)cc3)nc12` [Example 17, 7-(6,7-Diethyl-2,3-di-p-tolyl-5H-pyrrolo[2,3-b]pyrazin-5-yl)heptanoic acid], it took 0.5 nM to reach a half-maximal effect (EC50).
